In patent US12077503B2, “Substituted cyclic amides and their use as herbicides” (FMC CORPORATION, priority 2015, dated 2024):

Tests used:
Format in all cases: in vivo
[1] = system: corn (Zea mays); test: Test G Post-Emergence Protocol; details: Zea mays, post-emergence, 312 h; for plant injury at 15.625 g/ha: 15.625 g ai/ha, evaluated after 13 days (100=total damage to plant; 0=no damage to plant), read-out: Corn damage rating; for plant injury at 62.5 g/ha: 62.5 g ai/ha, read-out: Corn damage rating (100=total damage to plant; 0=no damage to plant); for plant injury at 62.5 g/ha / plant injury at 250 g/ha: evaluated after 13 days; for plant injury at 250 g/ha: 250 g ai/ha, read-out: damage to plant, Corn (100=total damage to plant; 0=no damage to plant)
Summary of the method: (§1)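 Damage was rated 13 days after treatment from 0 (none) to 100 (plant killed). Compound was applied as a spray at 15.625, 62.5 or 250 g/ha in 50:50 acetone/water containing 0.5% Tween 20, onto 8-day-old potted plants kept in a glasshouse (24/16 °C, 14 h light, 65% humidity).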

[2] = system: redroot pigweed (Amaranthus retroflexus); test: Test G Post-Emergence Protocol; details: Amaranthus retroflexus, post-emergence, 312 h; for pest or weed control at 15.625 g/ha: 15.625 g ai/ha, evaluated after 13 days (100=total damage to plant; 0=no damage to plant), read-out: Pigweed, Redroot damage rating; for pest or weed control at 62.5 g/ha: 62.5 g ai/ha, read-out: Pigweed, Redroot damage rating (100=total damage to plant; 0=no damage to plant); for pest or weed control at 62.5 g/ha / pest or weed control at 250 g/ha: evaluated after 13 days; for pest or weed control at 250 g/ha: 250 g ai/ha, read-out: damage to plant, Pigweed, Redroot (100=total damage to plant; 0=no damage to plant)
Summary of the method: as §1

[3] = system: giant foxtail (Setaria faberi); test: Test G Post-Emergence Protocol; details: Setaria faberi, post-emergence, 312 h; for pest or weed control at 15.625 g/ha: 15.625 g ai/ha, evaluated after 13 days (100=total damage to plant; 0=no damage to plant), read-out: Foxtail, Giant damage rating; for pest or weed control at 62.5 g/ha: 62.5 g ai/ha, read-out: Foxtail, Giant damage rating (100=total damage to plant; 0=no damage to plant); for pest or weed control at 62.5 g/ha / pest or weed control at 250 g/ha: evaluated after 13 days; for pest or weed control at 250 g/ha: 250 g ai/ha, read-out: damage to plant, Foxtail, Giant (100=total damage to plant; 0=no damage to plant)
Summary of the method: as §1

[4] = system: velvetleaf (Abutilon theophrasti); test: Test G Post-Emergence Protocol; details: Abutilon theophrasti, post-emergence, 312 h; for pest or weed control at 15.625 g/ha: 15.625 g ai/ha, evaluated after 13 days (100=total damage to plant; 0=no damage to plant), read-out: Velvetleaf damage rating; for pest or weed control at 62.5 g/ha: 62.5 g ai/ha, read-out: Velvetleaf damage rating (100=total damage to plant; 0=no damage to plant); for pest or weed control at 62.5 g/ha / pest or weed control at 250 g/ha: evaluated after 13 days; for pest or weed control at 250 g/ha: 250 g ai/ha, read-out: damage to plant, Velvetleaf (100=total damage to plant; 0=no damage to plant)
Summary of the method: as §1

[5] = system: barnyardgrass (Echinochloa crus-galli); test: Test G Post-Emergence Protocol; details: Echinochloa crus-galli, post-emergence, 312 h; for pest or weed control at 15.625 g/ha: 15.625 g ai/ha, evaluated after 13 days (100=total damage to plant; 0=no damage to plant), read-out: Barnyardgrass damage rating; for pest or weed control at 62.5 g/ha: 62.5 g ai/ha, read-out: Barnyardgrass damage rating (100=total damage to plant; 0=no damage to plant); for pest or weed control at 62.5 g/ha / pest or weed control at 250 g/ha: evaluated after 13 days; for pest or weed control at 250 g/ha: 250 g ai/ha, read-out: damage to plant, Barnyardgrass (100=total damage to plant; 0=no damage to plant)
Summary of the method: as §1

[6] = system: ivy-leaved morning glory (Ipomoea hederacea); test: Test G Post-Emergence Protocol; details: Ipomoea, post-emergence, 312 h; for pest or weed control at 15.625 g/ha: 15.625 g ai/ha, evaluated after 13 days (100=total damage to plant; 0=no damage to plant), read-out: Morningglory, Ivy-leaved damage rating; for pest or weed control at 62.5 g/ha: 62.5 g ai/ha, read-out: Morningglory, Ivy-leaved damage rating (100=total damage to plant; 0=no damage to plant); for pest or weed control at 62.5 g/ha / pest or weed control at 250 g/ha: evaluated after 13 days; for pest or weed control at 250 g/ha: 250 g ai/ha, read-out: damage to plant, Morningglory, Ivy-leaved (100=total damage to plant; 0=no damage to plant)
Summary of the method: as §1

[7] = system: corn (Zea mays); test: Test G Pre-Emergence Protocol; details: Zea mays, pre-emergence, 312 h, evaluated after 13 days; for plant injury at 15.625 g/ha: 15.625 g ai/ha; for plant injury at 15.625 g/ha / plant injury at 250 g/ha: read-out: Corn damage rating (100=total damage to plant; 0=no damage to plant); for plant injury at 62.5 g/ha: 62.5 g ai/ha, 100=total damage to plant, 0=no damage to plant, read-out: plant damage rating, Corn; for plant injury at 250 g/ha: 250 g ai/ha
Summary of the method: (§2)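 One day after sowing, pots are treated with a spray of test compound formulated in acetone/water 50:50 plus 0.5% Tween 20, giving 15.625, 62.5 or 250 g/ha. Evaluation on a 0–100 damage scale follows 13 days of glasshouse growth.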

[8] = system: redroot pigweed (Amaranthus retroflexus); test: Test G Pre-Emergence Protocol; details: Amaranthus retroflexus, pre-emergence, 312 h, evaluated after 13 days; for pest or weed control at 15.625 g/ha: 15.625 g ai/ha; for pest or weed control at 15.625 g/ha / pest or weed control at 250 g/ha: read-out: Pigweed, Redroot damage rating (100=total damage to plant; 0=no damage to plant); for pest or weed control at 62.5 g/ha: 62.5 g ai/ha, 100=total damage to plant, 0=no damage to plant, read-out: plant damage rating, Pigweed, Redroot; for pest or weed control at 250 g/ha: 250 g ai/ha
Summary of the method: as §2

[9] = system: giant foxtail (Setaria faberi); test: Test G Pre-Emergence Protocol; details: Setaria faberi, pre-emergence, 312 h, evaluated after 13 days; for pest or weed control at 15.625 g/ha: 15.625 g ai/ha; for pest or weed control at 15.625 g/ha / pest or weed control at 250 g/ha: read-out: Foxtail, Giant damage rating (100=total damage to plant; 0=no damage to plant); for pest or weed control at 62.5 g/ha: 62.5 g ai/ha, 100=total damage to plant, 0=no damage to plant, read-out: plant damage rating, Foxtail, Giant; for pest or weed control at 250 g/ha: 250 g ai/ha
Summary of the method: as §2

[10] = system: velvetleaf (Abutilon theophrasti); test: Test G Pre-Emergence Protocol; details: Abutilon theophrasti, pre-emergence, 312 h, evaluated after 13 days; for pest or weed control at 15.625 g/ha: 15.625 g ai/ha; for pest or weed control at 15.625 g/ha / pest or weed control at 250 g/ha: read-out: Velvetleaf damage rating (100=total damage to plant; 0=no damage to plant); for pest or weed control at 62.5 g/ha: 62.5 g ai/ha, 100=total damage to plant, 0=no damage to plant, read-out: plant damage rating, Velvetleaf; for pest or weed control at 250 g/ha: 250 g ai/ha
Summary of the method: as §2

[11] = system: barnyardgrass (Echinochloa crus-galli); test: Test G Pre-Emergence Protocol; details: Echinochloa crus-galli, pre-emergence, 312 h, evaluated after 13 days; for pest or weed control at 15.625 g/ha: 15.625 g ai/ha, read-out: Barnyard grass damage rating (100=total damage to plant; 0=no damage to plant); for pest or weed control at 62.5 g/ha: 62.5 g ai/ha, 100=total damage to plant, 0=no damage to plant, read-out: plant damage rating, Barnyardgrass; for pest or weed control at 250 g/ha: 250 g ai/ha, read-out: Barnyardgrass damage rating (100=total damage to plant; 0=no damage to plant)
Summary of the method: as §2

[12] = system: ivy-leaved morning glory (Ipomoea hederacea); test: Test G Pre-Emergence Protocol; details: Ipomoea, pre-emergence, 312 h, evaluated after 13 days; for pest or weed control at 15.625 g/ha: 15.625 g ai/ha, read-out: Morning-glory, Ivy-leaved damage rating (100=total damage to plant; 0=no damage to plant); for pest or weed control at 62.5 g/ha: 62.5 g ai/ha, 100=total damage to plant, 0=no damage to plant, read-out: plant damage rating, Morningglory, Ivy-leaved; for pest or weed control at 250 g/ha: 250 g ai/ha, read-out: Morningglory, Ivy-leaved damage rating (100=total damage to plant; 0=no damage to plant)
Summary of the method: as §2

Compound | plant injury at 15.625 g/ha [1] | plant injury at 62.5 g/ha [1] | plant injury at 250 g/ha [1] | pest or weed control at 15.625 g/ha [2] | pest or weed control at 62.5 g/ha [2] | pest or weed control at 250 g/ha [2] | pest or weed control at 15.625 g/ha [3] | pest or weed control at 62.5 g/ha [3] | pest or weed control at 250 g/ha [3] | pest or weed control at 15.625 g/ha [4] | pest or weed control at 62.5 g/ha [4] | pest or weed control at 250 g/ha [4] | pest or weed control at 15.625 g/ha [5] | pest or weed control at 62.5 g/ha [5] | pest or weed control at 250 g/ha [5] | pest or weed control at 15.625 g/ha [6] | pest or weed control at 62.5 g/ha [6] | pest or weed control at 250 g/ha [6] | plant injury at 15.625 g/ha [7] | plant injury at 62.5 g/ha [7] | other results
CN1C[C@@H](c2cnc(Cl)c(F)c2)[C@H](C(=O)Nc2cccc(F)c2F)C1=O (racemic) [Compound 1486] | 10% | 10% | 60% | 0% | 0% | 30% | 60% | 60% | 70% | 0% | 0% | 10% | 40% | 60% | 70% | 0% | 0% | 0% | 10% | 20% | plant injury at 250 g/ha [7]: 40%; pest or weed control at 15.625 g/ha [8]: 0%; pest or weed control at 62.5 g/ha [8]: 0%; pest or weed control at 250 g/ha [8]: 60%; pest or weed control at 15.625 g/ha [9]: 40%; pest or weed control at 62.5 g/ha [9]: 90%; pest or weed control at 250 g/ha [9]: 90%; pest or weed control at 15.625 g/ha [10]: 0%; pest or weed control at 62.5 g/ha [10]: 0%; pest or weed control at 250 g/ha [10]: 10%; pest or weed control at 15.625 g/ha [11]: 30%; pest or weed control at 62.5 g/ha [11]: 60%; pest or weed control at 250 g/ha [11]: 90%; pest or weed control at 15.625 g/ha [12]: 0%; pest or weed control at 62.5 g/ha [12]: 0%; pest or weed control at 250 g/ha [12]: 0%
Cc1ccc([C@@H]2CN(C)C(=O)[C@H]2C(=O)Nc2cccc(F)c2F)cc1Cl (racemic) [Compound 1475] | 30% | 40% | 70% | 10% | 30% | 50% | 70% | 70% | 70% | 10% | 10% | 10% | 30% | 60% | 50% | 20% | 0% | 70% | 0% | 30% | plant injury at 250 g/ha [7]: 50%; pest or weed control at 15.625 g/ha [8]: 0%; pest or weed control at 62.5 g/ha [8]: 0%; pest or weed control at 250 g/ha [8]: 0%; pest or weed control at 15.625 g/ha [9]: 70%; pest or weed control at 62.5 g/ha [9]: 80%; pest or weed control at 250 g/ha [9]: 90%; pest or weed control at 15.625 g/ha [10]: 0%; pest or weed control at 62.5 g/ha [10]: 0%; pest or weed control at 250 g/ha [10]: 0%; pest or weed control at 15.625 g/ha [11]: 10%; pest or weed control at 62.5 g/ha [11]: 70%; pest or weed control at 250 g/ha [11]: 80%; pest or weed control at 15.625 g/ha [12]: 0%; pest or weed control at 62.5 g/ha [12]: 0%; pest or weed control at 250 g/ha [12]: 10%
